Reference: patent US20080176813A1, “CARBOCYCLIC NUCLEOSIDES AND PROCESS FOR OBTAINING SUCH” (STICHTING REGA VZW, priority 1999, published 2008)
≈ marks a conversion by molar mass, not a printed value.

What was measured:
HeLa = experiment: Cytotoxicity, alteration of cell morphology; assay type: cell-based
HEL [1] = experiment: Cytotoxicity, HEL (footnote c not given); details: HEL (footnote c, not defined)
Method: (§1) The anti-herpesvirus activity of D-cyclohexene G and L-cyclohexene G and the respective adenine analogues was determined in human embryonic skin muscle fibroblast (E6SM: HSV-1, HSV-2) and in human embryonic lung (HEL) cells [varicella-zoster virus (VZV), cytomegalovirus (CMV)] (Table I).

VZV (YS) = experiment: Antiviral activity, virus plaque formation in HEL cells; assay type: cell-based, varicella-zoster virus; details: VZV (YS); for IC50: Human alphaherpesvirus 3, read-out: Activity: inhibitory concentration required to reduce virus plaque formation by 50% (IC50), HEL cells, virus input 20 PFU; for Selectivity index: HEL
Method: as §1

HSV-1 (KOS) = experiment: Antiviral activity, virus-induced cytopathogenicity in E6SM cell cultures; assay type: cell-based; details: for Selectivity index: E6SM; for IC50: Human alphaherpesvirus 1, read-out: Activity: minimum inhibitory concentration required to reduce virus-induced cytopathogenicity by 50% (IC50), E6SM cell cultures
Method: as §1

HSV-1 (TK−/TKf VMW1837) = experiment: as above; assay type: cell-based; details: for Selectivity index: HSV-1 (TK−/TKf VMW1837), E6SM; for IC50: Human alphaherpesvirus 1, E6SM, read-out: Activity: minimum inhibitory concentration required to reduce virus-induced cytopathogenicity by 50% (IC50)
Method: as §1

HSV-2 (196) = experiment: as above; assay type: cell-based; details: for Selectivity index: E6SM; for IC50: Human alphaherpesvirus 2, read-out: Activity: minimum inhibitory concentration required to reduce virus-induced cytopathogenicity by 50% (IC50), E6SM cell cultures
Method: as §1

HSV-1 (F) = experiment: as above; assay type: cell-based; details: for Selectivity index: E6SM; for IC50: Human alphaherpesvirus 1, read-out: Activity: minimum inhibitory concentration required to reduce virus-induced cytopathogenicity by 50% (IC50), E6SM cell cultures
Method: as §1

HSV-2 (G) = experiment: as above; assay type: cell-based; details: for Selectivity index: E6SM; for IC50: Human alphaherpesvirus 2, read-out: Activity: minimum inhibitory concentration required to reduce virus-induced cytopathogenicity by 50% (IC50), E6SM cell cultures
Method: as §1

HSV-2 (Lyons) = experiment: as above; assay type: cell-based; details: for Selectivity index: E6SM; for IC50: Human alphaherpesvirus 2, read-out: Activity: minimum inhibitory concentration required to reduce virus-induced cytopathogenicity by 50% (IC50), E6SM cell cultures
Method: as §1

HSV-1 (McIntyre) = experiment: as above; assay type: cell-based; details: for Selectivity index: E6SM; for IC50: Human alphaherpesvirus 1, read-out: Activity: minimum inhibitory concentration required to reduce virus-induced cytopathogenicity by 50% (IC50), E6SM cell cultures
Method: as §1

HSV-1 (TK−KOS ACVf) = experiment: as above; assay type: cell-based; details: for Selectivity index: HSV-1 (TK−KOS ACVf), E6SM; for IC50: Human alphaherpesvirus 1, E6SM, read-out: Activity: minimum inhibitory concentration required to reduce virus-induced cytopathogenicity by 50% (IC50)
Method: as §1

Vero = experiment: Cytotoxicity, alteration of cell morphology; assay type: cell-based
HEL [2] = experiment: Cytotoxicity, cell growth; details: HEL (footnote b)
[3] = Cytotoxicity, alteration of cell morphology
Method: as §1

VZV (TK−YS/R) = experiment: microbe, parasite or virus in culture; assay type: cell-based, varicella-zoster virus; details: for IC50: Human alphaherpesvirus 3, HEL, read-out: Activity: inhibitory concentration required to reduce virus plaque formation by 50% (IC50); for Selectivity index: VZV (TK−YS/R), HEL
Method: as §1

VZV (TK−07/1) = experiment: microbe, parasite or virus in culture; assay type: cell-based, varicella-zoster virus; details: for IC50: Human alphaherpesvirus 3, HEL, read-out: Activity: inhibitory concentration required to reduce virus plaque formation by 50% (IC50); for Selectivity index: VZV (TK−07/1), HEL
Method: as §1

VZV (OKA) = experiment: microbe, parasite or virus in culture; assay type: cell-based, varicella-zoster virus; details: for IC50: Human alphaherpesvirus 3, HEL, read-out: Activity: inhibitory concentration required to reduce virus plaque formation by 50% (IC50); for Selectivity index: VZV (OKA), HEL
Method: as §1

CMV (Davis) = experiment: Antiviral activity, virus plaque formation in HEL cells; assay type: cell-based, cytomegalovirus; details: for Selectivity index: HEL; for IC50: Human betaherpesvirus 5, read-out: Activity: inhibitory concentration required to reduce virus plaque formation by 50% (IC50), HEL cells, virus input 20 PFU
Method: as §1

CMV (AD 169) = experiment: as above; assay type: cell-based, cytomegalovirus; details: for Selectivity index: HEL; for IC50: Human betaherpesvirus 5, read-out: Activity: inhibitory concentration required to reduce virus plaque formation by 50% (IC50), HEL cells, virus input 20 PFU
Method: as §1

VZV and CMV = experiment: Potency against VZV and CMV; assay type: cell-based
Method: as §1

Compound | melting point | Minimum cytotoxic concentration causing a microscopically detectable alteration of cell morphology (HeLa) [μg/ml] | Cytotoxicity (concentration) (HEL [1]) [µg/mL] | Toxicity in four different cell lines (HeLa, Vero, E6SM, HEL) | IC50 (VZV (YS)) [µg/mL] | Selectivity index (VZV (YS)) | Selectivity index (HSV-1 (KOS)) | IC50 (HSV-1 (KOS)) [µg/mL] | Selectivity index (HSV-1 (TK−/TKf VMW1837)) | IC50 (HSV-1 (TK−/TKf VMW1837)) [µg/mL] | Selectivity index (HSV-2 (196)) | IC50 (HSV-2 (196)) [µg/mL] | IC50 (HSV-1 (F)) [µg/mL] | IC50 (HSV-2 (G)) [µg/mL] | IC50 (HSV-2 (Lyons)) [µg/mL] | IC50 (HSV-1 (McIntyre)) [µg/mL] | IC50 (HSV-1 (TK−KOS ACVf)) [µg/mL] | Cytotoxic concentration required to reduce cell growth by 50% (HEL [2]) [µg/mL] | IC50 (CMV (Davis)) [µg/mL] | IC50 (CMV (AD 169)) [µg/mL] | other results
Nc1ncnc2c1ncn2[C@@H]1C=C[C@H](CO)[C@@H](O)C1 [Compound 36, 9-[(1S,4R,5S)-5-Hydroxy-4-hydroxymethyl-2-cyclohexenyl]adenine] | 90 to 92 °C |  |  |  |  |  |  |  |  |  |  |  |  |  |  |  |  |  |  |  | 
Nc1nc2c(ncn2[C@@H]2C=C[C@H](CO)[C@@H](O)C2)c(=O)[nH]1 [D-cyclohexenyl G, 9-[(1S,4R,5S)-5-hydroxy-4-hydroxymethyl-2-cyclohexenyl]guanine] |  | 400 | 11 | did not show toxicity | 0.49 (≈ 1.77 µM) | >40 | >2.10^5 | 0.002 (≈ 0.00721 µM) | >4.10^4 | 0.01 (≈ 0.0361 µM) | >5.10^3 | 0.07 (≈ 0.252 µM) | 0.002 (≈ 0.00721 µM) | 0.05 (≈ 0.18 µM) | 0.07 (≈ 0.252 µM) | 0.004 (≈ 0.0144 µM) | 0.38 (≈ 1.37 µM) | >20 | 0.8 (≈ 2.89 µM) | 0.6 (≈ 2.16 µM) | Selectivity index (HSV-1 (F)): >2.10^5; Selectivity index (HSV-2 (G)): >8.10^3; Selectivity index (HSV-2 (Lyons)): >5.10^3; Selectivity index (HSV-1 (McIntyre)): >1.10^5; Selectivity index (HSV-1 (TK−KOS ACVf)): >1.10^3; Minimum cytotoxic concentration causing a microscopically detectable alteration of cell morphology (Vero): 400 μg/ml; Minimum cytotoxic concentration causing a microscopically detectable alteration of cell morphology ([3]; E8SM): >400 μg/ml; IC50 (VZV (TK−YS/R)): 2.8 µg/mL (≈ 10.1 µM); Selectivity index (VZV (TK−YS/R)): >7; IC50 (VZV (TK−07/1)): 2.1 µg/mL (≈ 7.57 µM); Selectivity index (VZV (TK−07/1)): >10; IC50 (VZV (OKA)): 0.64 µg/mL (≈ 2.31 µM); Selectivity index (VZV (OKA)): >30; Selectivity index (CMV (Davis)): >25; Selectivity index (CMV (AD 169)): >30
Nc1nc(O)c2ncn(COC(CO)CO)c2n1 [Ganciclovir, reference compound] |  |  | >50 |  |  |  |  | 0.001 (≈ 0.00392 µM) |  | 0.01 (≈ 0.0392 µM) |  | 0.001 (≈ 0.00392 µM) | 0.001 (≈ 0.00392 µM) | 0.002 (≈ 0.00784 µM) | 0.001 (≈ 0.00392 µM) | 0.001 (≈ 0.00392 µM) | 0.48 (≈ 1.88 µM) | >50 | 0.8 (≈ 3.13 µM) | 0.6 (≈ 2.35 µM) | Minimum cytotoxic concentration causing a microscopically detectable alteration of cell morphology ([3]; human): >100 μg/ml
Nc1nc2c(ncn2[C@H]2C=C[C@@H](CO)[C@H](O)C2)c(=O)[nH]1 [L-cyclohexenyl G, 9-[(1R,4S,5R)-5-Hydroxy-4-hydroxymethyl-2-cyclohexenyl]guanine] | 255 °C (dec.) | 400 | >20 | did not show toxicity | 1.2 (≈ 4.33 µM) | >16 | >5.10^3 | 0.003 (≈ 0.0108 µM) | >1.6 10^3 | 0.01 (≈ 0.0361 µM) | >1.6 10^2 | 0.1 (≈ 0.361 µM) | 0.003 (≈ 0.0108 µM) | 0.07 (≈ 0.252 µM) | 0.07 (≈ 0.252 µM) | 0.004 (≈ 0.0144 µM) | 1.28 (≈ 4.62 µM) | >20 | 1.7 (≈ 6.13 µM) | 1.5 (≈ 5.41 µM) | Selectivity index (HSV-1 (F)): >5.10^3; Selectivity index (HSV-2 (G)): >2.2 10^2; Selectivity index (HSV-2 (Lyons)): >2.2 10^2; Selectivity index (HSV-1 (McIntyre)): >4.10^3; Selectivity index (HSV-1 (TK−KOS ACVf)): >12; Minimum cytotoxic concentration causing a microscopically detectable alteration of cell morphology (Vero): 400 μg/ml; Minimum cytotoxic concentration causing a microscopically detectable alteration of cell morphology ([3]; E8SM): >18 μg/ml; Potency relative to D-cyclohexene G (fold lower) (VZV and CMV): about 2 fold; IC50 (VZV (TK−YS/R)): 6.8 µg/mL (≈ 24.5 µM); Selectivity index (VZV (TK−YS/R)): >3; IC50 (VZV (TK−07/1)): 5.8 µg/mL (≈ 20.9 µM); Selectivity index (VZV (TK−07/1)): >3; IC50 (VZV (OKA)): 1.9 µg/mL (≈ 6.85 µM); Selectivity index (VZV (OKA)): >10; Selectivity index (CMV (Davis)): >12; Selectivity index (CMV (AD 169)): >13
